Results published in ChEMBL document CHEMBL3714747, “Imidazothiadiazole and imidazopyrazine derivatives as protease activated receptor 4 (par4) inhibitors for treating platelet aggregation” (2015).

Assays:
Cynomolgus monkey [1] = assay: Antithrombotic activity in cynomolgus monkey electrolytic injury-induced carotid artery thrombosis model assessed as reduction in thrmbosis-induced occlusion at 0.02 mg/kg, po dosed 1 to 2 hrs before test; type: functional; conditions: Macaca fascicularis
Cynomolgus monkey [2] = assay: (§1) Antithrombotic activity in cynomolgus monkey electrolytic injury-induced carotid artery thrombosis model assessed as reduction in thrmbosis-induced occlusion at […], po dosed 1 to 2 hrs before test; type: functional; conditions: Macaca fascicularis
Cynomolgus monkey [3] = assay: Antithrombotic activity in cynomolgus monkey electrolytic injury-induced carotid artery thrombosis model assessed as reduction in thrmbosis-induced occlusion at 0.5 mg/kg, po dosed 1 to 2 hrs before test; type: functional; conditions: Macaca fascicularis
Cynomolgus monkey [4] = assay: Antithrombotic activity in cynomolgus monkey electrolytic injury-induced carotid artery thrombosis model assessed as reduction in thrmbosis-induced occlusion at 0.1 mg/kg, po dosed 1 to 2 hrs before test; type: functional; conditions: Macaca fascicularis
Cynomolgus monkey [5] = assay: as §1; type: functional; conditions: Macaca fascicularis; remark: listed apart in the source
[6] = biological target: T1, Proteinase-activated receptor 4 (Homo sapiens, UniProt Q96RI0); assay: Antagonist activity against human PAR4 expressed in HEK293 cells assessed as reduction in H-Ala-Phe(4-F)-Pro-Gly-Trp-Leu-Val-Lys-Asn-Gly-NH2-induced intracellular calcium mobilization incubated for 30 mins by FLIPR assay; type: functional, cell-based
T1 sequence (Q96RI0 whole entry): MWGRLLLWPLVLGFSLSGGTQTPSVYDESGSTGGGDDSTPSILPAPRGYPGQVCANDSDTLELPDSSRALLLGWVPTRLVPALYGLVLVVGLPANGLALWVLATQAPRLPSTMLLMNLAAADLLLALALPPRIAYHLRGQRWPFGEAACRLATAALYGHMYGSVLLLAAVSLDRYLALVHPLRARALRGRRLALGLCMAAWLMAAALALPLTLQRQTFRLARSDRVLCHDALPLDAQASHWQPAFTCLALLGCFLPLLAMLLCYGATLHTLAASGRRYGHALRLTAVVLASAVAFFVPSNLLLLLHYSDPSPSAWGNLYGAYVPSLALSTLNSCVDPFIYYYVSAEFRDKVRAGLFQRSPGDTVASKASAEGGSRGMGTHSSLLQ

| Structure (SMILES) | inhibition in vivo at 0.02 mg/kg (Cynomolgus monkey [1]) | inhibition in vivo at […] (Cynomolgus monkey [2]) | inhibition in vivo at 0.5 mg/kg (Cynomolgus monkey [3]) | inhibition in vivo at 0.1 mg/kg (Cynomolgus monkey [4]) | inhibition in vivo at […] (Cynomolgus monkey [5]) | EC50 [6] |
| --- | --- | --- | --- | --- | --- | --- |
| COc1cc(OCc2csc(-c3ccccc3)n2)c2cc(-c3cn4nc(OC)sc4n3)oc2c1 | 19% | 51% | 47% | 24% | 46% |  |
| COc1cc(OCc2csc(N3CCN(c4cnccn4)CC3)n2)c2cc(-c3cn4nc(C)ccc4n3)oc2c1 |  |  |  |  |  | 0.42 nM |
